Source: ChEMBL document CHEMBL3885881, “DrugMatrix”

Organism: Rattus norvegicus
Assay: DrugMatrix - Regimen: Daily Repeat
Type: toxicity, organism-based, Sprague-Dawley
Set-up: regimen Daily Repeat, gender Male, age 6-8 weeks
Details: in vivo, po, route oral GAVAGE, vehicle 100 % WATER; for ABSOLUTE BASOPHIL / ABSOLUTE EOSINOPHIL / ABSOLUTE LYMPHOCYTE / ABSOLUTE MONOCYTE / ABSOLUTE SEGMENTED NEUTROPHIL / BASOPHIL / EOSINOPHIL / ERYTHROCYTE COUNT / HEMATOCRIT / HEMOGLOBIN / LEUKOCYTE COUNT / LYMPHOCYTE / MEAN CORPUSCULAR HEMOGLOBIN / MEAN CORPUSCULAR HEMOGLOBIN CONCENTRATION / MEAN CORPUSCULAR VOLUME / MONOCYTE / NEUTROPHIL / NUCLEATED RED BLOOD CELLS / PLATELET COUNT: tissue Blood; for ALANINE AMINOTRANSFERASE / ALBUMIN / ALKALINE PHOSPHATASE / ASPARTATE AMINOTRANSFERASE / BLOOD UREA NITROGEN / CARBON DIOXIDE / CHLORIDE / CHOLESTEROL / CREATINE PHOSPHOKINASE / CREATININE / GLUCOSE / LACTATE DEHYDROGENASE / LIPASE / PHOSPHORUS / POTASSIUM / SODIUM / TOTAL BILIRUBIN / TOTAL PROTEIN / URIC ACID: tissue Plasma
[1] = 0 mg/kg, 72 h, dose level Control, time 3 day
[2] = 0 mg/kg, 120 h, dose level Control, time 5 day
[3] = 58 mg/kg, 72 h, dose level Low, time 3 day

In the case of `NC12CC3CC(CC(C3)C1)C2` [AMANTADINE], the “ABSOLUTE BASOPHIL” value [1] is reported as 0 CELLS/uL, the “ABSOLUTE EOSINOPHIL” value [1] is reported as 58.83 CELLS/uL and the “ABSOLUTE LYMPHOCYTE” value [1] is reported as 11823.5 CELLS/uL. For the same compound, the “ABSOLUTE MONOCYTE” value [1] was 169 CELLS/uL, the “ABSOLUTE SEGMENTED NEUTROPHIL” value [1] was 815.33 CELLS/uL and the BASOPHIL [1] was 0%. For the same compound, the EOSINOPHIL [1] was 0.5%, the “ERYTHROCYTE COUNT” value [1] was 5.52 x10E6/uL and the HEMATOCRIT [1] was 35.77%. For the same compound, the HEMOGLOBIN [1] was 14.28 G/DL, the “LEUKOCYTE COUNT” value [1] was 12.87 x10E3/uL and the LYMPHOCYTE [1] was 91.67%. The “MEAN CORPUSCULAR HEMOGLOBIN” value [1] was 25.92 pg, the “MEAN CORPUSCULAR HEMOGLOBIN CONCENTRATION” value [1] was 39.95 G/DL and the “MEAN CORPUSCULAR VOLUME” value [1] was 64.85 fL. For the same compound, the MONOCYTE [1] was 1.33%, the NEUTROPHIL [1] was 6.5% and the “NUCLEATED RED BLOOD CELLS” value [1] was 0 /100WBC. For the same compound, the “PLATELET COUNT” value [1] was 1246.17 x10E3/uL, the “ALANINE AMINOTRANSFERASE” value [1] was 66 u/L and the ALBUMIN [1] was 4.25 G/DL. For the same compound, the “ALKALINE PHOSPHATASE” value [1] was 416 u/L, the “ASPARTATE AMINOTRANSFERASE” value [1] was 106.17 u/L and the “BLOOD UREA NITROGEN” value [1] was 12.67 mg/dL. For the same compound, the “CARBON DIOXIDE” value [1] was 31.83 mmol/L, the CHLORIDE [1] was 102.5 MEQ/L and the CHOLESTEROL [1] was 69 mg/dL. The “CREATINE PHOSPHOKINASE” value [1] was 601.83 u/L, the CREATININE [1] was 0.18 mg/dL and the GLUCOSE [1] was 154.5 mg/dL. The “LACTATE DEHYDROGENASE” value [1] was 301.83 u/L, the LIPASE [1] was 11.17 u/L and the PHOSPHORUS [1] was 12.08 mg/dL. For the same compound, the POTASSIUM [1] was 6.12 MEQ/L, the SODIUM [1] was 145.2 MEQ/L and the “TOTAL BILIRUBIN” value [1] was 0.17 mg/dL. The “TOTAL PROTEIN” value [1] was 6.1 G/DL, the “URIC ACID” value [1] was 1.57 mg/dL and the “ABSOLUTE BASOPHIL” value [2] was 0 CELLS/uL. For the same compound, the “ABSOLUTE EOSINOPHIL” value [2] was 19.33 CELLS/uL, the “ABSOLUTE LYMPHOCYTE” value [2] was 12577.83 CELLS/uL and the “ABSOLUTE MONOCYTE” value [2] was 106.33 CELLS/uL. For the same compound, the “ABSOLUTE SEGMENTED NEUTROPHIL” value [2] was 896.5 CELLS/uL, the BASOPHIL [2] was 0% and the EOSINOPHIL [2] was 0.17%. For the same compound, the “ERYTHROCYTE COUNT” value [2] was 5.84 x10E6/uL, the HEMATOCRIT [2] was 36.88% and the HEMOGLOBIN [2] was 14.48 G/DL. For the same compound, the “LEUKOCYTE COUNT” value [2] was 13.6 x10E3/uL, the LYMPHOCYTE [2] was 92.17% and the “MEAN CORPUSCULAR HEMOGLOBIN” value [2] was 24.85 pg. The “MEAN CORPUSCULAR HEMOGLOBIN CONCENTRATION” value [2] was 39.3 G/DL, the “MEAN CORPUSCULAR VOLUME” value [2] was 63.23 fL and the MONOCYTE [2] was 0.83%. The NEUTROPHIL [2] was 6.83%, the “NUCLEATED RED BLOOD CELLS” value [2] was 0 /100WBC and the “PLATELET COUNT” value [2] was 1223.5 x10E3/uL. The “ALANINE AMINOTRANSFERASE” value [2] was 55.33 u/L, the ALBUMIN [2] was 4.08 G/DL and the “ALKALINE PHOSPHATASE” value [2] was 355.5 u/L. The “ASPARTATE AMINOTRANSFERASE” value [2] was 87.67 u/L, the “BLOOD UREA NITROGEN” value [2] was 15.33 mg/dL and the “CARBON DIOXIDE” value [2] was 33.83 mmol/L. For the same compound, the CHLORIDE [2] was 99.67 MEQ/L, the CHOLESTEROL [2] was 72.17 mg/dL and the “CREATINE PHOSPHOKINASE” value [2] was 268.33 u/L. The CREATININE [2] was 0.15 mg/dL, the GLUCOSE [2] was 152.5 mg/dL and the “LACTATE DEHYDROGENASE” value [2] was 212.67 u/L. It also gave an LIPASE [2] of 10.83 u/L, a PHOSPHORUS [2] of 11.65 mg/dL and a POTASSIUM [2] of 6.73 MEQ/L. For the same compound, the SODIUM [2] was 142.43 MEQ/L, the “TOTAL BILIRUBIN” value [2] was 0.23 mg/dL and the “TOTAL PROTEIN” value [2] was 6.07 G/DL. For the same compound, the “URIC ACID” value [2] was 1.7 mg/dL, the “ABSOLUTE BASOPHIL” value [3] was 0 CELLS/uL and the “ABSOLUTE EOSINOPHIL” value [3] was 0 CELLS/uL. For the same compound, the “ABSOLUTE LYMPHOCYTE” value [3] was 14460 CELLS/uL, the “ABSOLUTE MONOCYTE” value [3] was 391.33 CELLS/uL and the “ABSOLUTE SEGMENTED NEUTROPHIL” value [3] was 1148.67 CELLS/uL. For the same compound, the BASOPHIL [3] was 0%, the EOSINOPHIL [3] was 0% and the “ERYTHROCYTE COUNT” value [3] was 5.53 x10E6/uL. The HEMATOCRIT [3] was 35.03%, the HEMOGLOBIN [3] was 14 G/DL and the “LEUKOCYTE COUNT” value [3] was 16 x10E3/uL. For the same compound, the LYMPHOCYTE [3] was 90%, the “MEAN CORPUSCULAR HEMOGLOBIN” value [3] was 25.33 pg and the “MEAN CORPUSCULAR HEMOGLOBIN CONCENTRATION” value [3] was 40 G/DL. The “MEAN CORPUSCULAR VOLUME” value [3] was 63.37 fL, the MONOCYTE [3] was 2.33% and the NEUTROPHIL [3] was 7.67%. The “NUCLEATED RED BLOOD CELLS” value [3] was 0 /100WBC, the “PLATELET COUNT” value [3] was 1206.67 x10E3/uL and the “ALANINE AMINOTRANSFERASE” value [3] was 47.67 u/L. The ALBUMIN [3] was 4.17 G/DL, the “ALKALINE PHOSPHATASE” value [3] was 377.33 u/L and the “ASPARTATE AMINOTRANSFERASE” value [3] was 90 u/L. The “BLOOD UREA NITROGEN” value [3] was 13.33 mg/dL, the “CARBON DIOXIDE” value [3] was 31.67 mmol/L and the CHLORIDE [3] was 102.33 MEQ/L. For the same compound, the CHOLESTEROL [3] was 67 mg/dL, the “CREATINE PHOSPHOKINASE” value [3] was 444.67 u/L and the CREATININE [3] was 0.13 mg/dL. For the same compound, the GLUCOSE [3] was 137.33 mg/dL, the “LACTATE DEHYDROGENASE” value [3] was 367.33 u/L and the LIPASE [3] was 11.67 u/L. For the same compound, the PHOSPHORUS [3] was 12.1 mg/dL, the POTASSIUM [3] was 6.36 MEQ/L and the SODIUM [3] was 145.43 MEQ/L. The “TOTAL BILIRUBIN” value [3] was 0.17 mg/dL, the “TOTAL PROTEIN” value [3] was 5.9 G/DL and the “URIC ACID” value [3] was 1.6 mg/dL.
